Columns and labels:
[1] = molecular target: T1, two-pore channel 2 (TPC2) (Homo sapiens, UniProt Q8NHX9, L11A/L12A); test: fluo-4 Ca2+ FLIPR assay in HEK293 cells stably expressing hTPC2, stimulated with TPC2-A1-P or TPC2-A1-N; format: cell-based
T1 construct: gene TPCN2; human TPC2, C-terminally RFP-tagged, rerouted to the plasma membrane (hTPC2L11A/L12A)

P-glycoprotein (P-gp) = molecular target: T2, P-glycoprotein (P-gp) (Homo sapiens, UniProt P08183); test: calcein-AM retention by flow cytometry in VCR-R CEM cells at […]; format: cell-based
T2 construct: gene ABCB1; P-glycoprotein overexpressing VCR-R CEM cells
T2 sequence (P08183 whole entry): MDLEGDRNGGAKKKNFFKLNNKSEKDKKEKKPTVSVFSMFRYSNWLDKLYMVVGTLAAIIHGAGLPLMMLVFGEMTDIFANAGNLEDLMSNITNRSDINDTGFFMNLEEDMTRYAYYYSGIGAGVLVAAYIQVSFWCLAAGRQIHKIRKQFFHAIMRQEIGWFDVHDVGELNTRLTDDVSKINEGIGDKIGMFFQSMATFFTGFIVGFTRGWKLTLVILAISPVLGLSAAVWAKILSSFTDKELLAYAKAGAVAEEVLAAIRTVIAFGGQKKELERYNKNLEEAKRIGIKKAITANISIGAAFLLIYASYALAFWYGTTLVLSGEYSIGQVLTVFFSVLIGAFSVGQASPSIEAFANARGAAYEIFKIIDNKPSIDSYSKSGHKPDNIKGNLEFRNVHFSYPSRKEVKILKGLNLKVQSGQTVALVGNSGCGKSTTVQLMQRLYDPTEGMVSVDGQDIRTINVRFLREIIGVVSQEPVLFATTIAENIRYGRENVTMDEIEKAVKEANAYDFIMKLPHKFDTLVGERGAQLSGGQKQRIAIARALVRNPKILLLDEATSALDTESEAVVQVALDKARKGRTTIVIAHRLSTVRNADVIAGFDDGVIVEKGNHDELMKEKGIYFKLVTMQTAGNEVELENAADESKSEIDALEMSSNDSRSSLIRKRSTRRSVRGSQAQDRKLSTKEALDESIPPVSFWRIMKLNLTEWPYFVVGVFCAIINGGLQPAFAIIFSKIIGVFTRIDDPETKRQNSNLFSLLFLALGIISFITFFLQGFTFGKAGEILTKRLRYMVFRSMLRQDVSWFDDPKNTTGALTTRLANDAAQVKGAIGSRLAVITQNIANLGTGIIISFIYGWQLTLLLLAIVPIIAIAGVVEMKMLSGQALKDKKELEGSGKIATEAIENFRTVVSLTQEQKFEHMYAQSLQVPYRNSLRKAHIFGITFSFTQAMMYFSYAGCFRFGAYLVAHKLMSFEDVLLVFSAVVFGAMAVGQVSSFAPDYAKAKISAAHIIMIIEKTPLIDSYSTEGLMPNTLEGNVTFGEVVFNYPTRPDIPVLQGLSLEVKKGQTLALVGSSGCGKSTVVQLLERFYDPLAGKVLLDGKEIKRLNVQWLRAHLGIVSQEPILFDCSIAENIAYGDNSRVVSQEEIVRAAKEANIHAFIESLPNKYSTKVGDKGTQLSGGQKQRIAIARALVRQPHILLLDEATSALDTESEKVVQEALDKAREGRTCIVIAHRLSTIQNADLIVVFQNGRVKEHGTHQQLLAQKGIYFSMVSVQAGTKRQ

T1 sequence (Q8NHX9 whole entry L11A/L12A): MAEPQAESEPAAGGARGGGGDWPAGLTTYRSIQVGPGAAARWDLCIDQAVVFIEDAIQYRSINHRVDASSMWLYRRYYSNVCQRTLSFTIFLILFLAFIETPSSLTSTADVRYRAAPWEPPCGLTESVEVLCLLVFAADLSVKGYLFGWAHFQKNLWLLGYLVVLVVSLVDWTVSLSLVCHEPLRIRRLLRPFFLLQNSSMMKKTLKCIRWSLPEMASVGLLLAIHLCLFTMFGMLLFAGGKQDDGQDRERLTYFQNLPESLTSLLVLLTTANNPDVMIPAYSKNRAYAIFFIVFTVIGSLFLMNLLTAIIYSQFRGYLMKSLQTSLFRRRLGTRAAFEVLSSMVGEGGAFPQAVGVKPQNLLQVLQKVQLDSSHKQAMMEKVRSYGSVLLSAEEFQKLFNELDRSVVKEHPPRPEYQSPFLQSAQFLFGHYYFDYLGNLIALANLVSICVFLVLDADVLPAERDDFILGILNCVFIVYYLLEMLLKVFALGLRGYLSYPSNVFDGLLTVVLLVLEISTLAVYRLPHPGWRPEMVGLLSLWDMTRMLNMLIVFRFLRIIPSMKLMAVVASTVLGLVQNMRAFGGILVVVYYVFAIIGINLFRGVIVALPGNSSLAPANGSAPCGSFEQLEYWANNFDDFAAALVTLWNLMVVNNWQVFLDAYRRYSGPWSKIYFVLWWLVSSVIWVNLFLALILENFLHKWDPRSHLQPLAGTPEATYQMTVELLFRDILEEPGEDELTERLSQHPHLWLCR

Row | SMILES | IC50 [1] | calcein-AM retention by flow cytometry in VCR-R CEM cells at 10 μM (P-glycoprotein (P-gp))
1 | COc1ccc2cc1Oc1ccc(cc1)C[C@H]1c3c(cc4c(c3Oc3cc5c(cc3OC)CCN(C)[C@@H]5C2)OCO4)CCN1C [cepharanthine] | 3.6/57 µM | 
2 | COc1ccc2cc1Oc1ccc(cc1)C[C@H]1c3cc(c(OC)cc3CCN1C)Oc1c(OC)c(OC)cc3c1[C@H](C2)N(C)CC3 [tetrandrine] | 31/21 µM | indicating no P-glycoprotein inhibition. Tetrandrine served as positive control (Figure 5C).
